Structures can show the parent of a compound that is named as a salt.
molecular target: ASGPR (Rattus norvegicus (Rat), UniProt P02706+P08290); assay: Fluorescent polarization (FP) ASGPR binding assay; conditions: Table K, monomeric compounds; competition with 1 nM Cy5-labeled trimeric GalNAc tracer; Wistar rat liver membrane
Description: Fluorescent Polarization (FP) ASGPR Binding Assay to Determine the Binding Affinities of ASGPR-Targeted Small Molecules:
The technique of fluorescence polarization (FP) is based on the observation that when a fluorescently labeled molecule is excited by polarized light, it emits light with a degree of polarization that is inversely proportional to the rate of molecular rotation. This property of fluorescence can be used to measure the interaction of a small labeled ligand with a larger protein and provides a basis for direct and competition binding assays.
The assay was performed in 384-well microplates (GREINER bio-one, 781076). Membrane prepared from Wistar rat liver was used as a source of ASGPR and Cy5 fluorophore-labeled trimeric GauNAc-tool compound was used as a tracer.
In the FP binding experiments, 15 μltest sample was mixed with 15 μl of […] liver membrane. After 10 minutes incubation at room temperature, 10 μl of the Cy5-labeled trimeric GalNAc-tool compound (final concentration: 1 nM) were added. The FP signals were recorded after 30 minutes incubation at room temperature at Ex. 612 nm/Em. 670 with PheraStar FXS (BMG Biotech). The optimal FP buffer was 50 mM Tris, pH 7.4; 3 mM CaCl2; 0.04% Triton X100; 0,05% BSA.

ASGPR, sequence (P02706 whole entry): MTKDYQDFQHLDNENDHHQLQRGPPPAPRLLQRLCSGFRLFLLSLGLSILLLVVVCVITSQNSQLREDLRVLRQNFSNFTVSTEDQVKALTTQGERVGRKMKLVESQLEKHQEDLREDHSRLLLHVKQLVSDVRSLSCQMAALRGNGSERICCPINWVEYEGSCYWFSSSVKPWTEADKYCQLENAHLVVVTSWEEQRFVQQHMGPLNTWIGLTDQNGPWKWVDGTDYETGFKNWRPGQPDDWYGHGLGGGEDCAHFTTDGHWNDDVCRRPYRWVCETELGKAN
ASGPR, sequence (P08290 whole entry): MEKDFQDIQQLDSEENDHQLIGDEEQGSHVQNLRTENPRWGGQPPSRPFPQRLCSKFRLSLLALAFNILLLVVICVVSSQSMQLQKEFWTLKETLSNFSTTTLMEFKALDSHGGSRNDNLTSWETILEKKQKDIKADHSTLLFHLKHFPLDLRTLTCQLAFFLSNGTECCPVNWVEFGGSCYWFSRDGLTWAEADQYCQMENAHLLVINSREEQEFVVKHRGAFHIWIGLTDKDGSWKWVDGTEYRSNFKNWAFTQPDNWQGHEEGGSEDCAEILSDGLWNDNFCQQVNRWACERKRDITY

| Compound | IC50 |
| --- | --- |
| CC(=O)N[C@H]1CN(C(=O)CCCCC(=O)OCc2ccccc2)C[C@H](O)[C@@H]1O [Compound 112, benzyl 6-[(3S,4R,5S)-3-acetamido-4,5-dihydroxy-1-piperidyl]-6-oxo-hexanoate] | 344 µM |
| CCC[C@@H]1[C@H](O)[C@H](O)[C@@H](NC(C)=O)CN1C(=O)CCCCC(=O)O [Compound 148, 6-[(2R,3S,4R,5S)-5-acetamido-3,4-dihydroxy-2-propyl-1-piperidyl]-6-oxo-hexanoic acid] | 370 µM |
| CCC[C@@H]1[C@H](O)[C@H](O)[C@@H](NC(C)=O)CN1C(=O)CCCCC(=O)OCc1ccccc1 [Compound 146, benzyl 6-[(2R,3S,4R,5S)-5-acetamido-3,4-dihydroxy-2-propyl-1-piperidyl]-6-oxo-hexanoate] | 488 µM |
| CN(C)C(=O)C[C@H]1O[C@@H](n2cnc3c(=O)[nH]c(N)nc32)[C@H](O)[C@@H]1O [Compound 72, 2-[(2R,3S,4R,5R)-5-(2-Amino-6-oxo-1H-purin-9-yl)-3,4-dihydroxytetrahydrofuran-2-yl]-N,N-dimethyl-acetamide] | 89 µM |
| CC(=O)N[C@H]1CN[C@H](COC(=O)CCCCC(=O)OCc2ccccc2)[C@H](O)[C@@H]1O [Compound 161, 06-[[(2R,3S,4R,5S)-5-acetamido-3,4-dihydroxy-2-piperidyl]methyl] 01-benzyl hexanedioate] | 161 µM |
| CC(=O)N[C@H]1CN(C(=O)CCCCC(=O)OCc2ccccc2)[C@@H](CO)[C@H](O)[C@@H]1O [Compound 162, benzyl 6-[(2S,3S,4R,5S)-5-acetamido-3,4-dihydroxy-2-(hydroxymethyl)-1-piperidyl]-6-oxo-hexanoate] | 576 µM |
| CC(=O)N[C@H]1CN(C(=O)OCc2ccccc2)C[C@H](O)[C@@H]1O [Compound 121, benzyl (3S,4R,5S)-3-acetamido-4,5-dihydroxy-piperidine-1-carboxylate] | 563 µM |
| CCCCNC(=O)C[C@H]1O[C@@H](n2cnc3c(=O)[nH]c(N)nc32)[C@H](O)[C@@H]1O [Compound 73, 2-[(2R,3S,4R,5R)-5-(2-Amino-6-oxo-1H-purin-9-yl)-3,4-dihydroxy-tetrahydrofuran-2-yl]-N-butyl-acetamide] | 1920 µM |
| CC(=O)N[C@H]1CN(C(=O)CCCCCOCc2ccccc2)C[C@H](O)[C@@H]1O [Compound 128, N-[(3S,4R,5S)-1-(6-benzyloxyhexanoyl)-4,5-dihydroxy-3-piperidyl]acetamide] | 451 µM |
| CC(=O)N[C@H]1CN(C(=O)CCCCC(=O)OCc2ccccc2)[C@H](COC(C)(C)C)[C@H](O)[C@@H]1O [Compound 160, benzyl 6-[(2R,3S,4R,5S)-5-acetamido-2-(tert-butoxymethyl)-3,4-dihydroxy-1-piperidyl]-6-oxo-hexanoate] | 1050 µM |
| CNC(=O)C[C@H]1O[C@@H](n2cnc3c(=O)[nH]c(N)nc32)[C@H](O)[C@@H]1O [Compound 71, 2-[(2R,3S,4R,5R)-5-(2-Amino-6-oxo-1H-purin-9-yl)-3,4-dihydroxy-tetrahydrofuran-2-yl]-N-methyl-acetamide] | 605 µM |
| O=C1[C@H](O)[C@H](O)[C@@H](n2cc(COc3ccccc3)nn2)CN1CCCCCCOCc1ccccc1 [Compound 140, (3R,4R,5S)-1-(6-benzyloxyhexyl)-3,4-dihydroxy-5-[4-(phenoxymethyl)triazol-1-yl]piperidin-2-one] | 658 µM |
| CC(=O)N[C@H]1CN(C(=O)CCCCCO)C[C@H](O)[C@@H]1O [Compound 129, N-[(3S,4R,5S)-4,5-dihydroxy-1-(6-hydroxyhexanoyl)-3-piperidyl]acetamide] | 585 µM |
| O=C(CCCCCOCc1ccccc1)N1C[C@H](O)[C@H](O)[C@@H](n2cc(COc3ccccc3)nn2)C1 [Compound 131, 6-benzyloxy-1-[(3S,4R,5S)-3,4-dihydroxy-5-[4-(phenoxy-methyl)triazol-1-yl]-1-piperidyl]hexan-1-one] | 1770 µM |

The next lines start with the values.

| IC50 | Compound |
| --- | --- |
| 545 µM | CC(=O)N[C@H]1C(O)O[C@H](CO)[C@H](O)[C@@H]1O (stereo partly drawn) [Compound 193, N-[(3R,4R,5R,6R)-2,4,5-trihydroxy-6-(hydroxymethyl)-tetrahydropyran-3-yl]acetamide, reference compound] |
| 513 µM | Nc1nc2c(ncn2[C@@H]2O[C@H](CO)[C@@H](O)[C@H]2O)c(=O)[nH]1 [Compound 194, 2-amino-9-[(2R,3R,4S,5R)-3,4-dihydroxy-5-(hydroxymethyl)-tetrahydrofuran-2-yl]-1H-purin-6-one] |
| 1940 µM | CN(C)c1nc2c(ncn2[C@@H]2O[C@H](CO)[C@@H](O)[C@H]2O)c(=O)[nH]1 [Compound 198, 9-[(2R,3R,4S,5R)-3,4-dihydroxy-5-(hydroxymethyl)-tetrahydro-furan-2-yl]-2-(dimethylamino)-1H-purin-6-one] |
| 628 µM | CC(=O)N[C@H]1CN(CCCCCCOCc2ccccc2)[C@H](CO)[C@H](O)[C@@H]1O [Compound 180, N-[(3S,4R,5S,6R)-1-(6-benzyloxyhexyl)-4,5-dihydroxy-6-(hydroxymethyl)-3-piperidyl]acetamide] |
| 129 µM | CC(C)C(=O)Nc1nc2c(ncn2[C@@H]2O[C@H](CO)[C@@H](O)[C@H]2O)c(=O)[nH]1 [Compound 219, N-Isobuturylguanosine] |

same assay, conditions: Table L, targeted nucleosides; competition with 1 nM Cy5-labeled trimeric GalNAc tracer; Wistar rat liver membrane

| IC50 | Compound |
| --- | --- |
| 1240 µM | Cc1cn([C@H]2CN(CCOCCOCCOC[C@H]3O[C@@H](n4cnc5c(=O)[nH]c(N)nc54)[C@H](O)[C@@H]3O)CC(CO)(CO)O2)c(=O)[nH]c1=O [Compound 254, 1-[(2R)-4-[2-[2-[2-[[(2R,3S,4R,5R)-5-(2-Amino-6-oxo-1H-purin-9-yl)-3,4-dihydroxy-tetrahydrofuran-2-yl]methoxy]ethoxy]ethoxy]ethyl]-6,6-bis-(hydroxymethyl)-morpholin-2-yl]-5-methyl-pyrimidine-2,4-dione] |
| 1850 µM | Cc1cn([C@H]2CN(CCOCCOCCOP(=O)(O)OC[C@H]3O[C@@H](n4cnc5c(=O)[nH]c(N)nc54)[C@H](O)[C@@H]3O)CC(CO)(CO)O2)c(=O)[nH]c1=O [Compound 258, [(2R,3S,4R,5R)-5-(2-Amino-6-oxo-1H-purin-9-yl)-3,4-di-hydroxy-tetrahydrofuran-2-yl]methyl 2-[2-[2-[(6R)-2,2-bis(hydroxymethyl)-6-(5-methyl-2,4-dioxo-pyrimidin-1-yl)morpholin-4-yl]ethoxy]ethoxy]ethyl hydrogen phosphate-sodium salt] |

same assay, conditions: Table M, trimeric compounds; competition with 1 nM Cy5-labeled trimeric GalNAc tracer; Wistar rat liver membrane

| IC50 | Compound |
| --- | --- |
| 0.335 µM | CC(=O)NC1CN(C(=O)CCCC(=O)NCCCNC(=O)CCOCC(COCCC(=O)NCCCNC(=O)CCCC(=O)N2C[C@H](NC(C)=O)[C@@H](O)[C@@H](O)C2)(COCCC(=O)NCCCNC(=O)CCCC(=O)N2C[C@H](NC(C)=O)[C@@H](O)[C@@H](O)C2)NC(=O)CCCCCCCCCCCOCc2ccccc2)C[C@H](O)[C@@H]1O (stereo partly drawn) [Compound 268, N,N′,N′-((3S,3′S,3″S,4R,4′R,4″R,5S,5′S,5″S)-(16-(12-(benzyloxy)dodecanamido)-5,11,21,27-tetraoxo-16-((3-oxo-3-((3-(5-oxopentanamido)propyl)amino)propoxy)methyl)-14,18-dioxa-6,10,22,26-tetraazahentriacontanedioyl)tris(4,5-dihydroxy-piperidine-1,3-diyl))triacetamide] |
| 0.563 µM | CC(=O)N[C@H]1CN(C(=O)CCCCC(=O)NCCCNC(=O)CCOCC(COCCC(=O)NCCCNC(=O)CCCCC(=O)N2C[C@H](NC(C)=O)[C@@H](O)[C@@H](O)C2)(COCCC(=O)NCCCNC(=O)CCCCC(=O)N2C[C@H](NC(C)=O)[C@@H](O)[C@@H](O)C2)NC(=O)CCCCCCCCCCCOCc2ccccc2)C[C@H](O)[C@@H]1O [Compound 267, N,N′,N′-((3S,3′S,3″S,4R,4′R,4″R,5S,5′S,5″S)-(17-(12-(benzyloxy)dodecanamido)-6,12,22,28-tetraoxo-17-((3-oxo-3-((3-(6-oxopentanamido)propyl)amino)propoxy)methyl)-15,19-dioxa-7,11,23,27-tetraazatritriacontanedioyl)tris(4,5-dihydroxypiperidine-1,3-diyl))triacetamide] |

| Compound | IC50 |
| --- | --- |
| CC(=O)N[C@H]1CN(C(=O)CCC(=O)NCCCNC(=O)CCOCC(COCCC(=O)NCCCNC(=O)CCC(=O)N2C[C@H](NC(C)=O)[C@@H](O)[C@@H](O)C2)(COCCC(=O)NCCCNC(=O)CCC(=O)N2C[C@H](NC(C)=O)[C@@H](O)[C@@H](O)C2)NC(=O)CCCCCCCCCCCOCc2ccccc2)C[C@H](O)[C@@H]1O [Compound 269, N,N′,N′-((3S,3′S,3″S,4R,4′R,4″R,5S,5′S,5″S)-(15-(12-(benzyloxy)dodecanamido)-4,10,20,26-tetraoxo-15-((3-oxo-3-((3-(4-oxobutanamido)propyl)amino)pro-poxy)methyl)-13,17-dioxa-5,9,21,25-tetraazanonacosanedioyl)tris(4,5-dihydroxypiperidine-1,3-diyl))triacetamide] | 0.598 µM |

Source: patent publication US20240092819A1, “NOVEL LIGANDS FOR ASIALOGLYCOPROTEIN RECEPTOR” (SANOFI, priority 2020, published 2024)
